This experiment has as its target T1, Gag-Pol polyprotein [588-1027]/[588-1147] (Human immunodeficiency virus 1, UniProt P04585).
T1 construct: 588-1027; 588-1147
Briefly: Tested for inhibition against HIV-1 RT (used (poly)rC-(oligo)dG as the template).

By IC50 is commonly meant the concentration needed to halve the response being measured. Higher therefore signals weaker potency. `CCc1cc(CCc2nc3ccccc3o2)c(N)nc1C` [3-[2-(1,3-benzoxazol-2-yl)ethyl]-5-ethyl-6-methylpyridin-2-amine] gave an IC50 of 100 µM.

Turning to `CCc1cc(CCc2nc3c(o2)CCCC3)c(=O)[nH]c1C` [5-ethyl-6-methyl-3-[2-(4,5,6,7-tetrahydro-1,3-benzoxazol-2-yl)ethyl]-1,2-dihydropyridin-2-one], half-maximal inhibition (IC50) required 0.058 µM.

The record behind these values is BindingDB's records for doi:10.1021/jm00060a002 (Merck Reserch Laboratories, 1993).
